Common to all, as to format: in vivo
The subject of assay [1] is restenosis in the rat. Briefly: Effect of AII + Compound I on restenosis in the rat. Particulars: for effect on formation of the neointima (in words): exogenous AII 14 ug/kg/hr i.v., with or without Compound I. How it is done:
The effect of AII+Compound I on restenosis in the rat
AII was delivered by continuous i.v. infusion (14 ug/kg/hr) beginning at the time of angioplasty. Compound I was delivered as an i.v. bolus at the time of angioplasty (1.0 mg/kg) followed by continuous i.v. infusion (1.0 mg/kg/day). Rats were sacrificed on day 14.

Assay [2] relates to restenosis in the rat. The assay is described as follows: Effect of Compound I pretreatment and Compound I-Heparin combination therapy on restenosis in the rat. Particulars: for Intima Area: average ± sem. How it is done: The effect of Compound I pretreatment and Compound I--Heparin Combination therapy on restenosis in the rat
Compound I was delivered as an i.v. bolus at the time of angioplasty (1.0 mg/kg) followed by continuous i.v. infusion (1.0 mg/kg/day). Some groups were pretreated with Compound I. Pretreatment (PreRx) was begun 48 hr (1 mg/kg/day, i.v. bolus) prior to angioplasty. In all cases, Compound I treatment was continued for 14 days post-angioplasty. Other groups received Compound I in conjunction with heparin (0.3 mg/kg i.v. bolus+0.3 mg/kg/hr continuous i.v.) begun at the time of angioplasty and discontinued either 2 or 4 days later. The Hep 4d and Hep 2d data from above is included.

Assay [3] concerns rat carotid artery model of balloon angioplasty. Briefly: Enalaprilat, Compound II, Compound I in rat carotid artery model of balloon angioplasty. Conditions: 1 mg/kg/day continuous i.v.; for Intimal Area + sem / % Inhibition (intimal area): pretreatment (pt), 14 days; for % Inhibition (intimal area): vs. control; for inhibition of restenosis / neointima (in words): pretreatment. How it is done:
AII Receptor Antagonist: The effect of enalaprilat, the AII (site 2) receptor antagonist, Compound II, and Compound II in combination with the AII (site 1) receptor antagonist, Compound I, were evaluated in the rat carotid artery model of balloon angioplasty. Rats were pretreated surgery and drag treatment was continued (1 mg/kg/day, continuous i.v.) by ALZET minipump for the duration of the experiments. Fourteen days after balloon angioplasty, the rats were sacrificed and the extent of restenosis was determined by morphometric measurements of the newly-formed intima.

For assay [4], the system named is restenosis in the rat. The assay is described as follows: Effect of Compound II or Compound I pretreatment on restenosis in the rat. Particulars: 1 mg/kg/day i.v.; for Intimal Area / % Inhibition (intimal area): 48 h pretreatment, 14 days; for % Inhibition (intimal area): vs. control. How it is done:
The Effect of Compound II on restenosis in the rat
Rats were pretreated with Compound II or Compound I for the 48 hour period prior to surgery as well as on the day of surgery (1 mg/kg/day, bolus i.v.). Drug treatment was continued at the time of angioplasty (1 mg/kg/day, continuous i.v.) for the duration of the experiments (14 days).

Assay [5] relates to restenosis in the rat. The assay is described as follows: Effect of Compound I on restenosis in the rat: dose-response study. Conditions: for I/M / Intima Area / Media Area: day 14. How it is done: The effect of Compound I on restenosis in the Rat: Dose-response study
Compound I was delivered as an i.v. bolus at the time of angioplasty (0.1-1.0 mg/kg) followed by continuous i.v. infusion (0.1-1.0 mg/kg/day) until sacrifice on day 14.

Assay [6] concerns restenosis in the rat model. The assay is described as follows: Effects of Compound II (alone, + Compound I, + heparin) and heparin on restenosis in the rat model (balloon angioplasty). Particulars: for Intimal Area / % Inhibition of restenosis (intimal area): 14 days after balloon angioplasty, Compounds 1 mg/kg/day i.v. with 48 h pretreatment; for Intimal Area: heparin 0.3 mg/kg bolus + 0.3 mg/kg/hr i.v. for 4 days; for % Inhibition of restenosis (intimal area): heparin 0.3 mg/kg/hr i.v. for 4 days, vs. control. How it is done: The effects of the angiotensin II (Site II) receptor antagonist Compound II on restenosis in the rat model
A vehicle treatment group was compared to rats treated with: i) the AII (AT2) receptor antagonist, Compound II; ii) Compound II plus the AII (AT1) receptor antagonist, Compound I; (iii) Compound II+heparin; and iv) heparin only. Combination treatment with Compound II and Compound I were administered for the 48 hour period prior to surgery as well as on the day of surgery at 1 mg/kg/day by bolus i.v. Compound II and Compound I treatment was continued at the time of angioplasty at 1 mg/kg/day by continuous i.v. delivery via Alzet minipumps for the duration of the experiments (14 days). Heparin was delivered as a 0.3 mg/kg i.v. bolus at the time of angioplasty followed by continous i.v. delivery at 0.3 mg/kg/hr by Alzet minipump. Heparin treatment was discontinued 4 days later. Fourteen days after balloon angioplasty, the rats were sacrificed and the extent of restenosis was determined by morphometric measurements of the newly-formed intima.

In assay [7] the test system is restenosis in the rat. Briefly: Effect of Heparin on restenosis in the rat: time course. Conditions: for I/M / Intima Area / Media Area: heparin 0.3 mg/kg/hr i.v. How it is done:
The effect of Heparin on restenosis in the rat: time course
Heparin (0.3 mg/kg/hr) was delivered by i.v. bolus (0.3 mg/kg) at the time of angioplasty followed by continuous i.v. delivery for 2, 4 or 14 days (0.3 mg/kg,hr). The animals were sacrificed on day 14.

The mark [8] stands for this setting: PreRx (48 hr, 1 mg/kg/day), no heparin.
[9] abbreviates: no pretreatment, no heparin, Compound I 1.0 mg/kg/day i.v., 14 days.
[10] abbreviates: AII 14 ug/kg/hr i.v., Compound I 1.0 mg/kg bolus + 1.0 mg/kg/day i.v., day 14.
Setting [11] is: no pretreatment, Hep 4d (0.3 mg/kg/hr i.v.).

Entries after “also recorded” stand apart in the source; their conditions may differ.

For `CCc1nc2c(C)cc(C)nc2n1Cc1ccc(-c2ccccc2-c2nnn[nH]2)cc1` [Compound I, 5,7-dimethyl-2-ethyl-3-[(2'-(1H-tetrazol-5-yl)[1,1']-biphenyl-4-yl]-methyl]-3H-imidazo[4,5-b]pyridine], in the assay on restenosis in the rat [1], the “effect on formation of the neointima (in words)” value is “inhibits this stimulation”. In the assay with restenosis in the rat [2] (setting [8]), the I/M is reported as 1.01 ± 0.07, the “Media Area” value is given as 0.124 ± 0.006 mm^2 and the “Intima Area” value amounted to 0.125 ± 0.010 mm^2. In addition, in the assay with restenosis in the rat [2] (setting [9]), the I/M stood at 1.19 ± 0.04, the “Media Area” value is listed as 0.125 ± 0.006 mm^2 and the “Intima Area” value was 0.149 ± 0.009 mm^2. In addition, in the assay on restenosis in the rat [2] (pretreatment for 2 days or co-administration of heparin), the “reduction in the neointimal area (in words)” value is reported as “reduction in the neointimal area when compared with no pretreatment”. In assay [3], the “Intimal Area + sem” value was determined as 0.121 ± 0.012 mm^2, the “% Inhibition (intimal area)” value is listed as 41% and the “inhibition of restenosis / neointima (in words)” value is recorded as “independently inhibit neointima in this model”. In addition, in the assay on restenosis in the rat [4], the “inhibition of neointimal formation (in words)” value was “may independently inhibit growth of the neointimal formation”, the “Intimal Area” value was 0.121 ± 0.012 mm^2 and the “% Inhibition (intimal area)” value is 41%. Moreover, in the assay with restenosis in the rat [5] (0.1 mg/kg/day i.v.), the I/M came to 1.64 ± 0.09, the “Intima Area” value was found to be 0.212 ± 0.013 mm^2 and the “Media Area” value worked out at 0.129 ± 0.003 mm^2. For the same compound, in the assay with restenosis in the rat [5] (0.3 mg/kg/day i.v.), the I/M was found to be 1.47 ± 0.19, the “Intima Area” value was determined as 0.148 ± 0.014 mm^2 and the “Media Area” value was determined as 0.103 ± 0.009 mm^2. Moreover, in the assay with restenosis in the rat [5] (1.0 mg/kg/day i.v.), the I/M is 1.24 ± 0.04 and the “Intima Area” value is 0.149 ± 0.009 mm^2.

Turning to `CCc1nc2ccc(N(Cc3ccccc3)C(=O)c3cccs3)cc2c(=O)n1Cc1ccc(-c2ccccc2-c2nn[nH]n2)cc1` [Compound II], in assay [6], the “Intimal Area” value was determined as 0.097 ± 0.027 mm^2 and the “% Inhibition of restenosis (intimal area)” value is on record as 53%. Besides, the “effect upon neointimal formation (in words)” value in assay [6] (rat carotid model, administration alone) was “significant effect upon neointimal formation”. Further, in assay [3], the “Intimal Area + sem” value came out at 0.097 ± 0.027 mm^2, the “% Inhibition (intimal area)” value came to 53% and the “inhibition of restenosis / neointima (in words)” value is recorded as “inhibit restenosis in this model; also recorded: independently inhibit neointima in this model”. Also, in the assay on restenosis in the rat [4], the “inhibition of neointimal formation (in words)” value is reported as “may independently inhibit growth of the neointimal formation”, the “Intimal Area” value is listed as 0.097 ± 0.027 mm^2 and the “% Inhibition (intimal area)” value is recorded as 53%. Also, the “inhibition of neointimal formation (in words)” value in the assay with restenosis in the rat [5] (0.1-1.0 mg/kg/day i.v.) is given as “inhibits neointimal formation in a dose dependent manner”.

Consider `C[C@H](N[C@@H](CCc1ccccc1)C(=O)O)C(=O)N1CCC[C@H]1C(=O)O` [enalaprilat], for which, in assay [3], the “Intimal Area + sem” value is recorded as 0.133 ± 0.016 mm^2, the “% Inhibition (intimal area)” value is 35% and the “inhibition of restenosis / neointima (in words)” value is listed as “inhibit restenosis in this model; also recorded: independently inhibit neointima in this model”.

Take “Angiotensin II (DRVYIHPF; Angiotensin-2; UniProt P01019 25-32, looked up) [AII, powerful arterial vasoconstrictor]”: in the assay on restenosis in the rat [1] (setting [10]), the I/M was determined as 1.92 ± 0.19, the “Intima Area” value was found to be 0.348 ± 0.047 mm^2 and the “Media Area” value turned out to be 0.176 ± 0.008 mm^2. In addition, in the assay on restenosis in the rat [1], the “effect on formation of the neointima (in words)” value is reported as “stimulates the formation of the neointima by almost two fold”.

For the compound heparin, the “Intimal Area” value in assay [6] was determined as 0.158 ± 0.016 mm^2. Further, the “% Inhibition of restenosis (intimal area)” value in assay [6] is reported as 23%. The I/M in the assay on restenosis in the rat [7] (2 days) came out at 1.14 ± 0.13; with restenosis in the rat [7] (4 days), 1.17 ± 0.10; in the assay on restenosis in the rat [7] (14 days), 0.77 ± 0.05; in the assay with restenosis in the rat [2] (Hep 2d alone), 1.14 ± 0.13; in the assay with restenosis in the rat [2] (setting [11]), 1.17 ± 0.10. Moreover, the “Intima Area” value with restenosis in the rat [7] (2 days) worked out at 0.144 ± 0.012 mm^2; in the assay on restenosis in the rat [7] (4 days), 0.158 ± 0.016 mm^2; in the assay on restenosis in the rat [7] (14 days), 0.098 ± 0.008 mm^2; with restenosis in the rat [2] (Hep 2d alone), 0.144 ± 0.012 mm^2; with restenosis in the rat [2] (setting [11]) it was 0.158 ± 0.016 mm^2. Further, the “Media Area” value with restenosis in the rat [7] (2 days) is reported as 0.130 ± 0.008 mm^2; with restenosis in the rat [7] (4 days) it was 0.136 ± 0.010 mm^2; in the assay with restenosis in the rat [7] (14 days), 0.128 ± 0.004 mm^2; in the assay on restenosis in the rat [2] (Hep 2d alone), 0.130 ± 0.008 mm^2; in the assay with restenosis in the rat [2] (setting [11]), 0.136 ± 0.010 mm^2. The “effect on formation of neointima (in words)” value in the assay on restenosis in the rat [7] (heparin alone, 2, 4 or 14 days) is “decreases the formation of neointima; also recorded: greatest degree of inhibition was observed when heparin was given for 14 days”.

The values are drawn from US5409926A, “AT-2 antagonist inhibition of vascular restenosis” (Merck & Co., Inc., priority 1993, dated 1995).
